Laboratory results from paper PMC10820264, “Combining Experimental and Computational Methods to Produce Conjugates of Anticholinesterase and Antioxidant Pharmacophores with Linker Chemistries Affecting Biological Activities Related to Treatment of Alzheimer’s Disease” (Molecules, 2024).
Several values for one entry are separate records, joined by “and”; a condition that tells them apart may be missing. Equal values may be shown once. Read-outs that look alike come from different tables or passages of the source. Marks after values point to notes of the source that are not given here.

Columns and labels:
[1] = target: peripheral anionic site of Electrophorus electricus AChE (EeAChE) (Electrophorus electricus, UniProt O42275); type: binding;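 note: compounds tested at 20 µM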
Chain of peripheral anionic site of Electrophorus electricus AChE (EeAChE) (O42275 24-633): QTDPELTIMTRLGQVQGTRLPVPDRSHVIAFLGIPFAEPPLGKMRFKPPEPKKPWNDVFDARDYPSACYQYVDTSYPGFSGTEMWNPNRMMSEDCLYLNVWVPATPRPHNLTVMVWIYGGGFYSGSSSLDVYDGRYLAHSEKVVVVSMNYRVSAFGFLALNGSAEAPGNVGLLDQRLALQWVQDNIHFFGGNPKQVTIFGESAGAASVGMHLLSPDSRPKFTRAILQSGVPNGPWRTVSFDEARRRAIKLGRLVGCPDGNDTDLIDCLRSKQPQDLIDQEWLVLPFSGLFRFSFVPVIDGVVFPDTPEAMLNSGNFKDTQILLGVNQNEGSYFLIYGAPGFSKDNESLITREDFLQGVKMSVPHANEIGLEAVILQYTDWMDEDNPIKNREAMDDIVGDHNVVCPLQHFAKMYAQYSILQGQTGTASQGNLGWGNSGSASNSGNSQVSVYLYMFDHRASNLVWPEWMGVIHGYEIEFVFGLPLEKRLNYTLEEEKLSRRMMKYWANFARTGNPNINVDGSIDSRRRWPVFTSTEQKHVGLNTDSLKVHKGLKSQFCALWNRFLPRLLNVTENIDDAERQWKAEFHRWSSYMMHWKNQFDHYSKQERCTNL

[2] = target: equine serum BChE (Equus caballus, UniProt P81908); assay: biochemical; type: biochemical
Chain of equine serum BChE (P81908 whole entry): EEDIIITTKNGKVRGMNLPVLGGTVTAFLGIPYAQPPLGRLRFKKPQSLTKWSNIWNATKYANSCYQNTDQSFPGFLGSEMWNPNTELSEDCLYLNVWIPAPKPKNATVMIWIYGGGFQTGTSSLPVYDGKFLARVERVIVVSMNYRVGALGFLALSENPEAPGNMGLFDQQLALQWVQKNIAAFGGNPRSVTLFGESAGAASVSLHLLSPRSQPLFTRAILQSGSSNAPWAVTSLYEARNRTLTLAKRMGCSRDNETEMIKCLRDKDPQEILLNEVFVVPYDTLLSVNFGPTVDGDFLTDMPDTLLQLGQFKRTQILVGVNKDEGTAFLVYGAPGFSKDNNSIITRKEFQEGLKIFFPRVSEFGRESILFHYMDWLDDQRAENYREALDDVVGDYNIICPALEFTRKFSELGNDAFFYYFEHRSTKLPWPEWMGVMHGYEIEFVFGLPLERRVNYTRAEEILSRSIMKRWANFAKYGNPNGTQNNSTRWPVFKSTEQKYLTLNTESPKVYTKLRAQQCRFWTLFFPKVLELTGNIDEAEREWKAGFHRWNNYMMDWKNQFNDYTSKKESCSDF
Method: (§1) Human erythrocyte AChE and equine serum BChE were purchased from Milamed (Perm, Russia). Porcine liver CES, substrates, and reference compounds were from Sigma-Aldrich (St. Louis, MO, USA). The activity of enzymes was measured spectrophotometrically, as described in detail in [72] using ATCh iodide, BTCh iodide, and 4-NPA as substrates for AChE, BChE, and CES, respectively. Experimental conditions: K,Na—phosphate buffer (100 mM), 25 °C, pH 7.5 for AChE and BChE and pH 8.0 for CES assay. Measurements were carried out on a FLUOStar Optima microplate reader (BMG Labtech, Ortenberg, Germany).
(§2) Test compounds were dissolved in DMSO; the final concentration of solvent in the incubation mixture was 2% (v/v).

[3] = target: Human erythrocyte AChE (Homo sapiens, UniProt P22303); assay: biochemical; type: biochemical
Chain of Human erythrocyte AChE (P22303 other isoform, or with tags, fused parts or gaps): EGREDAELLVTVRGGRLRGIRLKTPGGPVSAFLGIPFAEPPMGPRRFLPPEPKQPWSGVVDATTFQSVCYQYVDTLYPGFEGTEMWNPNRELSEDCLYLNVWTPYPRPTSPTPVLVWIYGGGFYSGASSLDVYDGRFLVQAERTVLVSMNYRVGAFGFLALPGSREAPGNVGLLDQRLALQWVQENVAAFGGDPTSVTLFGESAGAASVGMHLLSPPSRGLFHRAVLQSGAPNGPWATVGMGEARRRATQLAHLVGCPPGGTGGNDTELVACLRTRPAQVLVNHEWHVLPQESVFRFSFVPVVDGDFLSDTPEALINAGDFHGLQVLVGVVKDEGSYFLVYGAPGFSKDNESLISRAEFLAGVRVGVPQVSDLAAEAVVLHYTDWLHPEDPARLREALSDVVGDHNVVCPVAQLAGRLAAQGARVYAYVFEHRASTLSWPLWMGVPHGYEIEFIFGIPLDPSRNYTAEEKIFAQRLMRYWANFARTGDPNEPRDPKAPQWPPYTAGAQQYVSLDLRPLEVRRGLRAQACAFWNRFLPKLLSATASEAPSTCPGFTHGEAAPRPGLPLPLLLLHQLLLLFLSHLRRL
Method: as §1, §2

[4] = ABTS radical cation scavenging assay; conditions: for time to reach the activity level of Trolox in ABTS radical scavenging: compound at 20 μM (IC50 of Trolox); for ABTS•+-Scavenging Activity TEAC: Trolox equivalents
[5] = system: Porcine liver CES; assay: CES inhibition, spectrophotometric, 4-NPA substrate; type: biochemical
Method: as §1
Test compounds were dissolved in DMSO; the final concentration of solvent in the incubation mixture was 2% (v/v). […]

[6] = Ferric-reducing antioxidant power (FRAP) assay; conditions: Trolox equivalents
[7] = target: Aβ42 (Homo sapiens, UniProt P05067); assay: Inhibition of Aβ42 self-aggregation, thioflavin T fluorescence; type: biochemical; conditions: for inhibition at 100 µM: read-out: Inhibition of Aβ42 Self-Aggregation
Chain of Aβ42 (P05067 672-713): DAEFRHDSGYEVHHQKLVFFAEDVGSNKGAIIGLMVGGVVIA

Row | Compound | Propidium Displacement [1] | IC50 [2] | IC50 [3] | IC50 [4] | time to reach the activity level of Trolox in ABTS radical scavenging [4] | CES % inhibition at 20 μM [5] | Ferric-Reducing Antioxidant Power TE [6] | ABTS•+-Scavenging Activity TEAC [4] | inhibition at 100 µM ([7]; Aβ42 50 µM, compound 100 µM) | Inhibition of Aβ42 Self-Aggregation ([7]; Aβ42 50 µM, compound 100 µM) | inhibition at 100 µM [7]
1 | CC(C)(C)c1cc(CNCCCCNc2c3c(nc4ccccc24)CCCCC3)cc(C(C)(C)C)c1O [18b, 2,6-Di-tert-butyl-4-{[4-(7,8,9,10-tetrahydro-6H-cyclohepta[b]quinolin-11-ylamino)-butylamino]-methyl}-phenol] | 15.7 ± 1.2% | 67.8 ± 6.1 nM | 436 ± 16 nM | 14600 ± 500 nM | less than 1 min | 21.4 ± 1.8% | 0.38 ± 0.01 |  |  |  | 
2 | CC(C)(C)c1cc(C=NCCCCCCCCNc2c3c(nc4ccccc24)CCC3)cc(C(C)(C)C)c1O [13d, 2,6-Di-tert-butyl-4-{[8-(2,3-dihydro-1H-cyclopenta[b]quinolin-9-ylamino)-octylimino]-methyl}-phenol] | 15.1 ± 0.9% | 41.7 ± 0.3 nM | 107 ± 9 nM | 22700 ± 1200 nM |  | 26.3 ± 1.7% | 0.71 ± 0.03 | 0.85 ± 0.03 | 49.4 ± 4.3% |  | 
3 | Propidium iodide [reference compound] |  |  |  |  |  |  |  |  |  | 89.3 ± 7.1 ^b % | 
4 | CC(C)(C)c1cc(CNCCCCCCNc2c3c(nc4ccccc24)CCC3)cc(C(C)(C)C)c1O [16c, 2,6-Di-tert-butyl-4-{[6-(2,3-dihydro-1H-cyclopenta[b]quinolin-9-ylamino)-hexylamino]-methyl}-phenol] | 15.8 ± 1.4% | 48.8 ± 0.5 nM | 205 ± 12 nM | 13400 ± 700 nM | less than 1 min | 18.7 ± 0.7% | 0.51 ± 0.02 |  |  |  | 
5 | CC(C)(C)c1cc(CNCCCCNc2c3c(nc4ccccc24)CCC3)cc(C(C)(C)C)c1O [16b, 2,6-Di-tert-butyl-4-{[4-(2,3-dihydro-1H-cyclopenta[b]quinolin-9-ylamino)-butylamino]-methyl}-phenol] | 17.5 ± 1.5 *^,§ % | 177 ± 17 nM | 912 ± 16 nM | 23600 ± 1300 nM |  | 17.2 ± 3.3% | 0.44 ± 0.02 | 0.90 ± 0.04 |  |  | 
6 | CC(C)(C)c1cc(C=NCCCCCCNc2c3c(nc4ccccc24)CCCC3)cc(C(C)(C)C)c1O [14c, 2,6-Di-tert-butyl-4-{[6-(1,2,3,4-tetrahydro-acridin-9-ylamino)-hexylimino]-methyl}-phenol] | 19.7 ± 1.5 **^,§ % | 55 ± 5 nM | 71.2 ± 1.2 nM | 18600 ± 900 nM |  | 25.1 ± 1.9% | 0.71 ± 0.02 | 1.10 ± 0.05 | 62.4 ± 4.9% |  | 
7 | CC(C)(C)c1cc(CNCCCCCCNc2c3c(nc4ccccc24)CCCC3)cc(C(C)(C)C)c1O [17c, 2,6-Di-tert-butyl-4-{[6-(1,2,3,4-tetrahydro-acridin-9-ylamino)-hexylamino]-methyl}-phenol] | 16.1 ± 1.1% | 36.1 ± 23 nM | 70.2 ± 1.1 nM | 15700 ± 600 nM | less than 1 min | 18.5 ± 1.6% | 0.44 ± 0.02 | 1.32 ± 0.08 | 64.1 ± 5.7% |  | 
8 | Cc1c(C)c2c(c(C)c1O)CCC(C)(C(=O)O)O2 (centres unmarked) [Trolox, 6-hydroxy-2,5,7,8-tetramethylchroman-2-carboxylic acid, reference compound] |  |  |  | 20000 nM and 20100 nM |  |  | 1.0 | 1.0 |  |  | 
9 | CC(C)(C)c1cc(C=NCCCCNc2c3c(nc4ccccc24)CCCCC3)cc(C(C)(C)C)c1O [15b, 2,6-Di-tert-butyl-4-{[4-(7,8,9,10-tetrahydro-6H-cyclohepta[b]quinolin-11-ylamino)-butylimino]-methyl}-phenol] | 18.4 ± 1.4 **^,§ % | 131 ± 4 nM | 524 ± 20 nM | 22500 ± 1400 nM |  | 26.3 ± 0.4% | 0.46 ± 0.01 | 0.89 ± 0.04 |  |  | 
10 | CC(C)(C)c1cc(CNCCNc2c3c(nc4ccccc24)CCCC3)cc(C(C)(C)C)c1O [17a, 2,6-Di-tert-butyl-4-{[2-(1,2,3,4-tetrahydro-acridin-9-ylamino)-ethylamino]-methyl}-phenol] | 13.4 ± 1.1% | 464 ± 41 nM | 2880 ± 190 nM | 16700 ± 800 nM |  | 18.4 ± 1.1% | 0.52 ± 0.02 | 1.20 ± 0.05 |  |  | 
11 | CC(C)(C)c1cc(C=NCCCCCCNc2c3c(nc4ccccc24)CCC3)cc(C(C)(C)C)c1O [13c, 2,6-Di-tert-butyl-4-{[6-(2,3-dihydro-1H-cyclopenta[b]quinolin-9-ylamino)-hexylimino]-methyl}-phenol] | 16.5 ± 1.3% | 172 ± 17 nM | 210 ± 10 nM | 19400 ± 900 nM |  | 31.3 ± 2.1% | 0.59 ± 0.01 | 0.98 ± 0.04 |  |  | 
12 | Nc1c2c(nc3ccccc13)CCCC2 [Tacrine, reference compound] |  |  |  |  |  |  |  |  |  | minimal inhibition | 
13 | CC(C)(C)c1cc(C=NCCCCNc2c3c(nc4ccccc24)CCCC3)cc(C(C)(C)C)c1O [14b, 2,6-Di-tert-butyl-4-{[4-(1,2,3,4-tetrahydro-acridin-9-ylamino)-butylimino]-methyl}-phenol] | 17.6 ± 1.4 *^,§ % | 385 ± 31 nM | 424 ± 22 nM | 19700 ± 900 nM |  | 26.6 ± 2.2% |  | 1.0 and 1.00 ± 0.05 |  |  | 
14 | CC(C)(C)c1cc(CNCCCCNc2c3c(nc4ccccc24)CCCC3)cc(C(C)(C)C)c1O [17b, 2,6-Di-tert-butyl-4-{[4-(1,2,3,4-tetrahydro-acridin-9-ylamino)-butylamino]-methyl}-phenol] | 15.4 ± 1.3% | 111 ± 9 nM | 279 ± 22 nM | 14300 ± 600 nM | less than 1 min | 15.8 ± 1.4% |  |  |  |  | 
15 | O=c1c(O)c(-c2cc(O)c(O)c(O)c2)oc2cc(O)cc(O)c12 [Myricetin, reference compound] |  |  |  |  |  |  |  |  |  |  | 73.2 ± 5.8%
16 | CC(C)(C)c1cc(CNCCCCCCCCNc2c3c(nc4ccccc24)CCC3)cc(C(C)(C)C)c1O [16d, 2,6-Di-tert-butyl-4-{[8-(2,3-dihydro-1H-cyclopenta[b]quinolin-9-ylamino)-octylamino]-methyl}-phenol] | 13.9 ± 1.1% | 17 ± 1.6 nM | 94 ± 6 nM | 21300 ± 1200 nM |  | 17.2 ± 0.2% | 0.61 ± 0.01 | 1.00 ± 0.03 | 54.6 ± 3.9% |  | 
17 | bis-4-nitrophenyl phosphate [BNPP, reference compound] |  |  |  |  |  | 99.1 ± 0.9% ^b |  |  |  |  | 
18 | CC(C)(C)c1cc(C=NCCCCNc2c3c(nc4ccccc24)CCC3)cc(C(C)(C)C)c1O [13b, 2,6-Di-tert-butyl-4-{[4-(2,3-dihydro-1H-cyclopenta[b]quinolin-9-ylamino)-butylimino]-methyl}-phenol] | 20.0 ± 1.6 ***^,§ % | 351 ± 1 nM | 1300 ± 70 nM | 25400 ± 1600 nM |  | 32.7 ± 1.9% | 0.60 ± 0.02 | 0.78 ± 0.04 |  |  | 
